# Measured values published in ChEMBL document CHEMBL1201862, “PubChem BioAssay data set” (2004).
# The source made the active and inactive calls.
# Assays:
# Hexokinase = molecular target: T1, Hexokinase (Trypanosoma brucei, UniProt Q38C41); experiment: Confirmation assay for inhibitors of Trypanosoma brucei hexokinase 1-Analogue-first series. [Related pubchem assays (depositor defined):AID1430, AID1632, AID2516, AID2560, AID2579, AID2600, AID449725, AID492951]; assay type: functional
# T1 sequence (Q38C41 whole entry): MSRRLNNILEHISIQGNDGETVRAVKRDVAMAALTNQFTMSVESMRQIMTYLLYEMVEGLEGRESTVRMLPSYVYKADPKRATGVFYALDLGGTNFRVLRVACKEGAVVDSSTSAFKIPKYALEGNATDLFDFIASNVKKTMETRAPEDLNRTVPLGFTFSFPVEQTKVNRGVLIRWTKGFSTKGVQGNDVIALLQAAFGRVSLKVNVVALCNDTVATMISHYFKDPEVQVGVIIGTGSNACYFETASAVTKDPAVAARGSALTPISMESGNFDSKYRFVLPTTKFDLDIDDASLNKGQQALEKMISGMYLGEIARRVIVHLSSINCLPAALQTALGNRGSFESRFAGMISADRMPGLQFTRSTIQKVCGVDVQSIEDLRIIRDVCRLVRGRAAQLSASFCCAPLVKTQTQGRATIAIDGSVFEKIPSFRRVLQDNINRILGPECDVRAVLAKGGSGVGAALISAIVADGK
# [1] = HPDE-C7 pancreatic duct cell viability loss – fluorescence, HTS (AID 430); assay type: functional, cell-based; conditions: Homo sapiens
# [2] = viability loss of HPDE-C7K cells – cell-based, fluorescence, HTS, primary screen (AID 431); assay type: functional; conditions: Homo sapiens
# [3] = molecular target: T2, Short transient receptor potential channel 4 (Mus musculus, UniProt Q9QUQ5); experiment: calcium entry via TRPC4 opening agents – cell-based, HEK293 TRPC4/mu-opioid, Fluo-4 calcium, dose response (AID 434937); assay type: functional
# T2 sequence (Q9QUQ5 whole entry): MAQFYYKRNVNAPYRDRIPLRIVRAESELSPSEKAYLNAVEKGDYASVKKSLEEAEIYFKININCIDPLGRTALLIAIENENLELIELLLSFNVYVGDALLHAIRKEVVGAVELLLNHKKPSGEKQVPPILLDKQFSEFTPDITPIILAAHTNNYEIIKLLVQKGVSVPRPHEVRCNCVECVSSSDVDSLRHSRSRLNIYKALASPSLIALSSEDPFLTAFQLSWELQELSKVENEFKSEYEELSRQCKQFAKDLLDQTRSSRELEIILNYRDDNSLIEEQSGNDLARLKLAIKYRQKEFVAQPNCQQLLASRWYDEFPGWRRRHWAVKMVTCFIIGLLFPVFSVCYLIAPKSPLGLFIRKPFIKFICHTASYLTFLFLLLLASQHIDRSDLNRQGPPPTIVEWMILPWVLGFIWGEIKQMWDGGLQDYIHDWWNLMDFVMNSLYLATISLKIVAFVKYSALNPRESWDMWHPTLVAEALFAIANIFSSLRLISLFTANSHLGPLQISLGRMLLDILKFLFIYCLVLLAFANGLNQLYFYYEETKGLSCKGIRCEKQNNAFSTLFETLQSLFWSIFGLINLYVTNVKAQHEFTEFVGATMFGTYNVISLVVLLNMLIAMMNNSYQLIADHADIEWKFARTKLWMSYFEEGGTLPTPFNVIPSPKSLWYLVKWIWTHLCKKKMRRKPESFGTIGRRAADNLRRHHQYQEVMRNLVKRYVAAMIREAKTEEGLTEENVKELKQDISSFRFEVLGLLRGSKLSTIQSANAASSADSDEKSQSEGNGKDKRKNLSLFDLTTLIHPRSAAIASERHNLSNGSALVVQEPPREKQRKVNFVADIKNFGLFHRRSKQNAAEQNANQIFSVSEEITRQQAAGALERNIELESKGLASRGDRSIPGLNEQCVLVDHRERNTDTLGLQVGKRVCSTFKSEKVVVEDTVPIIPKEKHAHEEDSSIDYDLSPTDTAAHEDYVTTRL
# [4] = Intein inhibitors as potential Tuberculosis drugs, a cytotoxicity screen. [Related pubchem assays (depositor defined):AID2221, AID2223, AID434968, AID435010, AID449749, AID449750, AID489010]; assay type: functional
# [5] = molecular target: T3, Replicative DNA helicase DnaB (Mycobacterium tuberculosis, UniProt P9WMR3); experiment: DnaB intein splicing inhibitors, dose response, biochemical, cell-free fluorescence (AID 449749); assay type: functional
# T3 sequence (P9WMR3 whole entry): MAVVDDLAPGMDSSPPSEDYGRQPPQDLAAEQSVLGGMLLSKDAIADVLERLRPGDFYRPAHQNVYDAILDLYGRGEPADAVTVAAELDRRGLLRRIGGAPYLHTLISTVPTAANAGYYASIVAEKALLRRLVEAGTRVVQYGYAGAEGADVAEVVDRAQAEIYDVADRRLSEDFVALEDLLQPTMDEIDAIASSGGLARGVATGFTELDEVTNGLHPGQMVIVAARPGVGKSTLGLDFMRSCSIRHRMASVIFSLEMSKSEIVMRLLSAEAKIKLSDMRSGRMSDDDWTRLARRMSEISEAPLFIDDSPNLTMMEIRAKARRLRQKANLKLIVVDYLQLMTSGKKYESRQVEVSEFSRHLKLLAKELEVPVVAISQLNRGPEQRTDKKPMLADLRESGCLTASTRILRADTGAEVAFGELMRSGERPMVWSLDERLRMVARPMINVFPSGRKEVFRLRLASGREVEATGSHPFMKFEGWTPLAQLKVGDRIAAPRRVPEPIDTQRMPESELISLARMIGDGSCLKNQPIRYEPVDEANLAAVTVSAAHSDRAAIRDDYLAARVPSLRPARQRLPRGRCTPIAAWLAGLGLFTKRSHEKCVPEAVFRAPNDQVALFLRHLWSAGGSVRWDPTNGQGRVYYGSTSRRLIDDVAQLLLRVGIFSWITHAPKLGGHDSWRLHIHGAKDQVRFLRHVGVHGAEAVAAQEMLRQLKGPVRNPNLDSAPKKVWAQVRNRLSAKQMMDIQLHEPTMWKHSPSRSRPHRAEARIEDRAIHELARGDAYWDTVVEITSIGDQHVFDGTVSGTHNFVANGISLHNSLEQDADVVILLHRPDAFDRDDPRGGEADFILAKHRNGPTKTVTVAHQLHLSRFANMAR
# Protein RecA = molecular target: T4, Protein RecA (Mycobacterium tuberculosis, UniProt P9WHJ3); experiment: Fluorescence Cell-Free Homogeneous Dose Retest to Identify Inhibitors of RecA-Intein Splicing Activity. [Related pubchem assays (depositor defined):AID2097, AID2223, AID489010, AID492950]; assay type: functional
# T4 sequence (P9WHJ3 whole entry): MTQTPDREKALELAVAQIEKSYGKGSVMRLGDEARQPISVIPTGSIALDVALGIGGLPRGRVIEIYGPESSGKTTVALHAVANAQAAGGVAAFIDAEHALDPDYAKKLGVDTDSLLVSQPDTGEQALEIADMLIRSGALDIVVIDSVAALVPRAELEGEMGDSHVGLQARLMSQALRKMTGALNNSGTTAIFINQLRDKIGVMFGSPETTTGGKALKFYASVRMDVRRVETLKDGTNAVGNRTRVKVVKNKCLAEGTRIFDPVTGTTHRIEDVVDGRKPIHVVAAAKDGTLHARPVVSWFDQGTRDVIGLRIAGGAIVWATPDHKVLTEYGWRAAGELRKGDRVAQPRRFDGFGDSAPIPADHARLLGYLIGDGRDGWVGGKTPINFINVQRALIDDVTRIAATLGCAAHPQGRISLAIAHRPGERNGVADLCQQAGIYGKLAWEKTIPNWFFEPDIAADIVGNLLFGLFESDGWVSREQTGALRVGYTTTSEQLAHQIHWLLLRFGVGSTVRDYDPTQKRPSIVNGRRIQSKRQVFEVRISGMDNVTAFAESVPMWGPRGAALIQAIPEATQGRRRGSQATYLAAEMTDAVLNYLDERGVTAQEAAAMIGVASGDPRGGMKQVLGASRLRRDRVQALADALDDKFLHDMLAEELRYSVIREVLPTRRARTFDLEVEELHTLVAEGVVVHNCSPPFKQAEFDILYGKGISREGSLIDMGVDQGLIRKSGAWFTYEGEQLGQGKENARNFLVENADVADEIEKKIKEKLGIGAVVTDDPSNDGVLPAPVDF
# [6] = Luminescence Cell-Based Dose Response HTS to Identify Inhibitors of 5'UTR Stem-Loop Driven Prion Protein mRNA Translation in H4 Neuroglioblastoma Cells. [Related pubchem assays: 1827 (Project Summary), 1813 (Primary HTS)]; assay type: functional
# [7] = alpha-synuclein stem-loop luciferase translation blockers – H4 neuroglioma cells, luminescence, confirmation (AID 1988); assay type: functional, cell-based
# [8] = Luminescence Cell-Based Dose Retest to Confirm Inhibitors of Cancer Stem Cells. [Related pubchem assays (depositor defined):AID2717, AID2721]; assay type: functional; conditions: Homo sapiens
# Jurkat = experiment: blockers of NF-kB activation in T cells – Jurkat, luciferase reporter, luminescence, B- and T-cell, dose response (AID 489004); assay type: functional, cell-based; conditions: Homo sapiens;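 note: NF-kB luciferase reporter Jurkat cells stimulated with PMA plus ionomycin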
# [9] = HEK-293T viability loss, compound-treated – cell-based, uHTS hits, cytotoxicity control for B/T-cell NF-kB inhibitor project, dose response (AID 489019); assay type: functional;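 note: IC50 reflects cytotoxicity as loss of cell viability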
# [10] = activation of miR-122 Renilla sensor silencing – cell-based, Huh7 psiCHECK-miR122, Renilla luciferase, cherry-picked, dose response (AID 651956); assay type: functional;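 note: huh7 hepatoma cells stably carrying a psiCHECK-2 miR-122 sensor plasmid; renilla luciferase signal reporting endogenous miR-122 activity after 48 h compound exposure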
# [11] = general mammalian cell viability loss – inhibitor set, cherry-pick, set 2, cytotoxicity control for miR-122 modulator project, dose response (AID 720697); assay type: functional, cell-based
# 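Throughout, for CC50: cells exposed to compound for 72 hours before luminescence readout.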
smiles,measurement,setting,value
O=C(Cn1sc2ccccc2c1=O)Nc1ccccc1F,IC50,Hexokinase,5.8 µM (active)
CCCCN(CC)CCCNC(=O)Cn1nc(Cc2ccncc2)c2ccccc2c1=O,EC50,[1],> 20 µM (not active)
same,EC50,[2],> 20 µM (not active)
same,EC50,[3],0.168 µM (active)
COC(=O)c1sc(-c2ccc(Cl)cc2)cc1NC(=O)/C=C/C(=O)O,CC50,[4],24.2 µM (active)
same,AC50,[5],4.02 µM (active)
same,EC50,Protein RecA,2.44 µM (active)
COc1ccc(C(=O)Nc2cc(Cl)c(Br)cc2C(=O)O)cc1,IC50,Hexokinase,4.59 µM (active)
Nc1nc(Cl)nc2c1ncn2[C@H]1C[C@H](O)[C@@H](CO)O1 [CLADRIBINE],EC50,[6],4.8 µM (active)
same,EC50,[7],2.96 µM (active)
same,AC50,[8],0.24 µM (active)
same,IC50,Jurkat,0.66 µM (active)
same,IC50,[9],> 80 µM (inactive)
same,AC50,[10],50.9 µM (active)
same,AC50,[11],9.07 µM (active)
